This note sets out measurements from US10669269B2, “Substituted N-(1H-indazol-4-yl)imidazo[1,2-a]pyridine-3-carboxamide compounds as type III receptor tyrosine kinase inhibitors” (ARRAY BIOPHARMA INC., priority 2010, dated 2020).

Assay [1] addresses T1, c-KIT (Homo sapiens, UniProt P10721).
T1 construct: M-07e cells (human acute megakaryoblastic leukemia cell line) were serum-starved for 4 hours; endogenous in cells; host or cells: M-07e cells (human acute megakaryoblastic leukemia cell line)
The assay is described as follows: c-KIT Cell-Based Assay (Example D). Conditions: averaged IC50; phospho-c-KIT in M-07e cells stimulated with 150 ng/ml recombinant human SCF; read-out: cKIT Cell ELISA IC50. In outline:
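M-07e cells serum-starved 4 h, treated 1 h with compound (9-point, 3-fold dilutions, top dose typically 5,000 nM) at 37° C, then stimulated 4 min with 150 ng/ml SCF. Phospho-c-KIT in lysates quantified by ELISA against a standard curve; IC50 from 4-parameter logistic fit as 50% of control.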

For assay [2], the target named is T2, PDGFR beta (Homo sapiens, UniProt P09619).
T2 construct: endogenous in cells; host or cells: HS27 human fibroblast cell line
The assay is described as follows: Phospho PDGFR Cell Assay, sandwich ELISA (Example A). Type of assay: cell-based. Conditions: averaged IC50, PDGFR beta phosphorylation in HS27 human fibroblast cell line, PDGF-BB stimulation 5 minutes. The procedure: Compounds were screened for inhibition of PDGFR beta phosphorylation in the HS27 human fibroblast cell line. Cells were seeded into a 96 well tissue culture plate, then incubated overnight in a 37° C., 5% CO2 incubator. The following day, cells were treated for one hour with test compound dilutions. After stimulation with PDGF-BB ligand for 5 minutes, cells were lysed and added to a sandwich ELISA plate from R&D Systems to detect levels of phospho PDGFR beta. A standard 4-parameter logistic model was fit to the inhibitor dose response curves, with the IC50 being defined as the concentration of inhibitor giving 50 percent of control (POC).
In general terms: ELISA stands for enzyme-linked immunosorbent assay.

For assay [3], the target named is T3, cFMS (Homo sapiens, UniProt P07333).
T3 construct: THP-1 cells (human acute monocytic leukemia cell line) were serum-starved for 4 hours; endogenous in cells; host or cells: THP-1 cells (human acute monocytic leukemia cell line)
The assay is described as follows: cFMS Cell-Based Assay (Example C). As to conditions: averaged IC50; phospho-cFMS in THP-1 cells stimulated with 250 ng/mL recombinant human MCSF; read-out: cFMS Cell ELISA IC50. In outline:
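THP-1 cells serum-starved 4 h, then treated 1 h with compound (9-point, 3-fold series, top dose typically 5,000 nM) at 37 °C, then stimulated 1 min with 250 ng/mL recombinant human MCSF. Phospho-cFMS in lysates quantified by capture ELISA against a purified phospho-protein standard curve. IC50 at 50 percent of control, 4-parameter logistic fit.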

Counter-ions that a name gives are not always drawn.

T1 sequence (P10721 26-976): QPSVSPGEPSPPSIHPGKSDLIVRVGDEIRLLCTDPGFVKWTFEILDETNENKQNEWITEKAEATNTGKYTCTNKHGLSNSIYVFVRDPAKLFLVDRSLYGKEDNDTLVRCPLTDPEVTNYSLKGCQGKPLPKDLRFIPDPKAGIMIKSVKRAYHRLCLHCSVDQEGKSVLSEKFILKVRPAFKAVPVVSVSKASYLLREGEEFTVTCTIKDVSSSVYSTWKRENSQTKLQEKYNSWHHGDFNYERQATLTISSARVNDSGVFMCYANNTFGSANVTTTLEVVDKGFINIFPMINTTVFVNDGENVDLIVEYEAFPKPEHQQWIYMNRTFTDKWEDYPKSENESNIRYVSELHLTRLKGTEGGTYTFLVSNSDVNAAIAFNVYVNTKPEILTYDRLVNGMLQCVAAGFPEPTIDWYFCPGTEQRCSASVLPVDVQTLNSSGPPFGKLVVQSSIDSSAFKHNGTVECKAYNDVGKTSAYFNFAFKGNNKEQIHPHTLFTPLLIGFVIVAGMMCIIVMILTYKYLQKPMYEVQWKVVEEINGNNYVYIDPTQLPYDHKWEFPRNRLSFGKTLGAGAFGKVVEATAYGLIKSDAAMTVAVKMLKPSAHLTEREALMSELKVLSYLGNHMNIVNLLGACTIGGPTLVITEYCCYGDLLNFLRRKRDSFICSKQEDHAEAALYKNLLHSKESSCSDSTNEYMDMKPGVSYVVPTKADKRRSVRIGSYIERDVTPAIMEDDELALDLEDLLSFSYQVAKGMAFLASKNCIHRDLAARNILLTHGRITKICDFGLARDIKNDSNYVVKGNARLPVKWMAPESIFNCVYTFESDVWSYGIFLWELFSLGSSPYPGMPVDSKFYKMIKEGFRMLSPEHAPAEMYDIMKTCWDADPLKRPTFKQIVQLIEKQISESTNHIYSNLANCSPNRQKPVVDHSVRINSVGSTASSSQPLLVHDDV
T3 sequence (P07333 20-972): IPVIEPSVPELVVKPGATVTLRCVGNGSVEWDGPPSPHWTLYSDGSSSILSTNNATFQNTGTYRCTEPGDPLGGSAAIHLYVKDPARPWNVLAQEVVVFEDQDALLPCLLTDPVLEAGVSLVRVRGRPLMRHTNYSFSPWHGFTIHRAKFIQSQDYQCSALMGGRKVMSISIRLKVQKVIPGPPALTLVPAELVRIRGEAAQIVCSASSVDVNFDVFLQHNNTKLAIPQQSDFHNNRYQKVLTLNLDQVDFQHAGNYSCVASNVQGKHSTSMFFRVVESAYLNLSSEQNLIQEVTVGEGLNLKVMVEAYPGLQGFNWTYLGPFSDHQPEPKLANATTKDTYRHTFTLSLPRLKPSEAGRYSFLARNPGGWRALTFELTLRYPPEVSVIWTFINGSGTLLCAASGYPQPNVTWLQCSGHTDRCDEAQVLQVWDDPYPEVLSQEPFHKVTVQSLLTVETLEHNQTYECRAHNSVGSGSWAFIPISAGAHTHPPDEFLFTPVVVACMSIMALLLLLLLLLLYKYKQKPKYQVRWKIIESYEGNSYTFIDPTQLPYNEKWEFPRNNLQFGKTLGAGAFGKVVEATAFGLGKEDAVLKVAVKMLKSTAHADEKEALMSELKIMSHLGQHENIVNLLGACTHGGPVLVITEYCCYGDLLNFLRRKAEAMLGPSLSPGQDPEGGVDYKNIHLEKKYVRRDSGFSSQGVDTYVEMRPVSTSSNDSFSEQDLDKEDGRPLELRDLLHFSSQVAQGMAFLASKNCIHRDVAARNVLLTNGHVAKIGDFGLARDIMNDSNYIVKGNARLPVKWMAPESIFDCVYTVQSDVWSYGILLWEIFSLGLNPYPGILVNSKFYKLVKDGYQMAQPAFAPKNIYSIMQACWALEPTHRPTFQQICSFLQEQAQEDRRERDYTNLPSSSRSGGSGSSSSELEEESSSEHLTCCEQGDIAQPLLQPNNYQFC
T2 sequence (P09619 33-1106): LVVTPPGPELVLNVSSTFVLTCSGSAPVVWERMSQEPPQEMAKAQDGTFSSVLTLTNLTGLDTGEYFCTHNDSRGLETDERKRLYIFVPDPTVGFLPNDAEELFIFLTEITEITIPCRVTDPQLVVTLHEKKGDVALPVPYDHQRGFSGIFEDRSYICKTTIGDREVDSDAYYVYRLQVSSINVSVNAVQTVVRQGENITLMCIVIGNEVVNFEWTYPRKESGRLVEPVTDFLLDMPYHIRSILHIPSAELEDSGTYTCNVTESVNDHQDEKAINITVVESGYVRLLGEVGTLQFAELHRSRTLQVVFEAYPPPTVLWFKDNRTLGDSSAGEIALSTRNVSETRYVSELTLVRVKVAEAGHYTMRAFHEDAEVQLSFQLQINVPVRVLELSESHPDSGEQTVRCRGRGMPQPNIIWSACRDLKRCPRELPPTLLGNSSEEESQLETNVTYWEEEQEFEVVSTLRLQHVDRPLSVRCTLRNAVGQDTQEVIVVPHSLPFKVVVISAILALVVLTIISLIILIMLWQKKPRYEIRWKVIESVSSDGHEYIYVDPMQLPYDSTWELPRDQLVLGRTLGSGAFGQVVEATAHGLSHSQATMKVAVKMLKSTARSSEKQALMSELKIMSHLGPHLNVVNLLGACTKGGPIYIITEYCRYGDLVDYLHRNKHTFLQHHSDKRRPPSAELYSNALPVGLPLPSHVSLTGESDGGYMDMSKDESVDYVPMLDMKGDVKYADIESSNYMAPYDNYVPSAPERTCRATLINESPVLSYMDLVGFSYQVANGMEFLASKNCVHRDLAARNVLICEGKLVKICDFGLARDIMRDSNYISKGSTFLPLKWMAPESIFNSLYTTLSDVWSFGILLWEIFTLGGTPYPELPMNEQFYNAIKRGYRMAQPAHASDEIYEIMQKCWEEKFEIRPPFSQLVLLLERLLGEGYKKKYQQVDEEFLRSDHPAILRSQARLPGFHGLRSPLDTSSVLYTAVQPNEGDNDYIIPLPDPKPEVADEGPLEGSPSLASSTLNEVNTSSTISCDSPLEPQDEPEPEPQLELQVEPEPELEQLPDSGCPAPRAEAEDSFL

For orientation: IC50 means the concentration at which inhibition is half-maximal. With `CCC(C)c1cccc(Cn2nc(C)c3c(NC(=O)c4cnc5cc(OCCN6CCN(C)[C@@H](C)C6)ccn45)cccc32)n1` (stereo partly drawn) [Example 37, N-(1-((6-sec-butylpyridin-2-yl)methyl)-3-methyl-1H-indazol-4-yl)-7-(2-((S)-3,4-dimethylpiperazin-1-yl)ethoxy)imidazo[1,2-a]pyridine-3-carboxamide], the results for the IC50 in assay [1], in assay [2] and in assay [3] were 62 nM, 102 nM and 52.4 nM, respectively.

As for `Cc1cccc(Cn2nc(C)c3c(NC(=O)c4cnc5cc(CCO)ccn45)cccc32)n1` [Example 73, 7-(2-hydroxyethyl)-N-(3-methyl-1-((6-methylpyridin-2-yl)methyl)-1H-indazol-4-yl)imidazo[1,2-a]pyridine-3-carboxamide], the IC50 in assay [1] was 5000 nM; in assay [2], at least 1000 nM; in assay [3] it was 63.6 nM.

On to `Cc1cccc(Cn2nc(C)c3c(NC(=O)c4cnc5ccc(C#N)cn45)cccc32)n1` [Example 62, 6-cyano-N-(3-methyl-1-((6-methylpyridin-2-yl)methyl)-1H-indazol-4-yl)imidazo[1,2-a]pyridine-3-carboxamide], for which the 50% inhibitory concentration (IC50) in assay [1] stood at 2450 nM; in assay [2] it was 886 nM; in assay [3], 257 nM.

For `Cc1cccc(Cn2nc(C)c3c(NC(=O)c4cnc5cc(O)ccn45)cccc32)n1` [Example 63, 7-hydroxy-N-(3-methyl-1-((6-methylpyridin-2-yl)methyl)-1H-indazol-4-yl)imidazo[1,2-a]pyridine-3-carboxamide], the values for the IC50 in assay [1], in assay [2] and in assay [3] were 5000 nM, at least 1000 nM and 47 nM, respectively.

For the molecule `CC(C)N1CCN(CCOc2ccn3c(C(=O)Nc4cccc5c4c(F)nn5Cc4cccc(C5CC5)n4)cnc3c2)CC1` [Example 22, N-(1-((6-cyclopropylpyridin-2-yl)methyl)-3-fluoro-1H-indazol-4-yl)-7-(2-(4-isopropylpiperazin-1-yl)ethoxy)imidazo[1,2-a]pyridine-3-carboxamide], the results for the IC50 in assay [1], in assay [2] and in assay [3] were 5.2 nM, 17.6 nM and 6.7 nM, respectively.

Regarding `Cc1nn(Cc2cccc(CC(C)C)n2)c2cccc(NC(=O)c3cnc4cc(OCCN5CCN(C)[C@@H](C)C5)ccn34)c12` [Example 40, (S)-7-(2-(3,4-dimethylpiperazin-1-yl)ethoxy)-N-(1-((6-isobutylpyridin-2-yl)methyl)-3-methyl-1H-indazol-4-yl)imidazo[1,2-a]pyridine-3-carboxamide], the IC50 in assay [1] turned out to be 95 nM; in assay [2] it was 37.2 nM; in assay [3], 55.8 nM.

Turning to `COCCOc1ccn2c(C(=O)Nc3cccc4c3cnn4C[C@@H]3CCCN(C(=O)OC(C)(C)C)C3)cnc2c1` [Example 117, (R)-tert-butyl 3-((4-(7-(2-methoxyethoxy)imidazo[1,2-a]pyridine-3-carboxamido)-1H-indazol-1-yl)methyl)piperidine-1-carboxylate], the IC50 in assay [1] was found to be 125 nM; in assay [2], 54.8 nM; in assay [3], 168 nM.

In the case of `Cc1nn(Cc2cccc(C(C)C)n2)c2cccc(NC(=O)c3cnc4cc(OCCN5C[C@@H](C)N(C)[C@@H](C)C5)ccn34)c12` [Example 7, N-(1-((6-Isopropylpyridin-2-yl)methyl)-3-methyl-1H-indazol-4-yl)-7-(2-((3S,5R)-3,4,5-trimethylpiperazin-1-yl)ethoxy)imidazo[1,2-a]pyridine-3-carboxamide], the IC50 in assay [1] came out at 43.7 nM; in assay [2] it was 40.9 nM; in assay [3] it was 20.8 nM.

On to `Cc1cccc(Cn2nc(C)c3c(NC(=O)c4cnc5cc(C6CCNCC6)ccn45)cccc32)n1` [Example 52, N-(3-methyl-1-((6-methylpyridin-2-yl)methyl)-1H-indazol-4-yl)-7-(piperidin-4-yl)imidazo[1,2-a]pyridine-3-carboxamide tri-hydrochloride], for which the IC50 in assay [1] is 5000 nM; in assay [2] it was at least 1000 nM; in assay [3] it was 108 nM.

For the molecule `Cc1cccc(Cn2nc(C)c3c(NC(=O)c4cnc5cc(CCN6CCCC6)ccn45)cccc32)n1` [Example 77, N-(3-methyl-1-((6-methylpyridin-2-yl)methyl)-1H-indazol-4-yl)-7-(2-(pyrrolidin-1-yl)ethyl)imidazo[1,2-a]pyridine-3-carboxamide], the half-maximal inhibitory concentration (IC50) is 5000 nM in assay [1], at least 1000 nM in assay [2] and 78.1 nM in assay [3].

Turning to `O=C(Nc1cccc2c1cnn2Cc1ccccc1)c1cnc2ccc(Br)cn12` [Example 155, N-(1-benzyl-1H-indazol-4-yl)-6-bromoimidazo[1,2-a]pyridine-3-carboxamide], the 50% inhibitory concentration (IC50) in assay [1] turned out to be 76.2 nM; in assay [2], 282 nM; in assay [3] it was 114 nM.

For the molecule `CC(C)N1CCN(CCOc2ccn3c(C(=O)Nc4cccc5c4c(Cl)nn5Cc4cccc(C5CC5)n4)cnc3c2)CC1` [Example 21, N-(3-chloro-1-((6-cyclopropylpyridin-2-yl)methyl)-1H-indazol-4-yl)-7-(2-(4-isopropylpiperazin-1-yl)ethoxy)imidazo[1,2-a]pyridine-3-carboxamide], the IC50 in assay [1] worked out at 46.6 nM; in assay [2] it was 124 nM; in assay [3], 12 nM.

For the molecule `Cc1cccc(Cn2nc(C)c3c(NC(=O)c4cnc5cc(C6=CCNCC6)ccn45)cccc32)n1` [Example 51, N-(3-methyl-1-((6-methylpyridin-2-yl)methyl)-1H-indazol-4-yl)-7-(1,2,3,6-tetrahydropyridin-4-yl)imidazo[1,2-a]pyridine-3-carboxamide hydrochloride], the IC50 in assay [1] worked out at 687 nM; in assay [2], 394 nM; in assay [3] it was 9.9 nM.

As for `O=C(Nc1cccc2c1cnn2Cc1ccccc1)c1cnc2cc(O)ccn12` [Example 92, N-(1-benzyl-1H-indazol-4-yl)-7-hydroxyimidazo[1,2-a]pyridine-3-carboxamide], the concentration for half-maximal inhibition (IC50) was 205 nM in assay [1], 137 nM in assay [2] and 26 nM in assay [3].

Take `COCCOc1ccn2c(C(=O)Nc3cccc4c3cnn4CC3CN(C(=O)OC(C)(C)C)CCO3)cnc2c1` (stereo not drawn) [Example 123, tert-butyl 2-((4-(7-(2-methoxyethoxy)imidazo[1,2-a]pyridine-3-carboxamido)-1H-indazol-1-yl)methyl)morpholine-4-carboxylate]: the values for the IC50 in assay [1], in assay [2] and in assay [3] were 255 nM, 162 nM and 378 nM, respectively.

Take `C[C@H]1CN(CCOc2ccn3c(C(=O)Nc4cccc5c4c(Cl)nn5Cc4cccc(C5CC5)n4)cnc3c2)CCN1C` [Example 23, (S)—N-(3-chloro-1-((6-cyclopropylpyridin-2-yl)methyl)-1H-indazol-4-yl)-7-(2-(3,4-dimethylpiperazin-1-yl)ethoxy)imidazo[1,2-a]pyridine-3-carboxamide]: the results for the half-inhibitory concentration (IC50) in assay [1], in assay [2] and in assay [3] were 65.7 nM, 239 nM and 21.1 nM, respectively.

Take `O=C(Nc1cccc2c1cnn2Cc1ccccc1)c1cnc2cc(C(O)CO)ccn12` (stereo not drawn) [Example 157, N-(1-benzyl-1H-indazol-4-yl)-7-(1,2-dihydroxyethyl)imidazo[1,2-a]pyridine-3-carboxamide]: the values for the IC50 in assay [1], in assay [2] and in assay [3] were 232 nM, 275 nM and 105 nM, respectively.

With `COCCOc1ccn2c(C(=O)Nc3cccc4c3c(C)nn4CC3CCOCC3)cnc2c1` [Example 83, 7-(2-methoxyethoxy)-N-(3-methyl-1-((tetrahydro-2H-pyran-4-yl)methyl)-1H-indazol-4-yl)imidazo[1,2-a]pyridine-3-carboxamide], the IC50 in assay [1] is 5000 nM; in assay [2] it was at least 1000 nM; in assay [3] it was 538 nM.

As to `Cc1cccc(Cn2nc(C)c3c(NC(=O)c4cnc5cc(F)ccn45)cccc32)n1` [Example 53, 7-fluoro-N-(3-methyl-1-((6-methylpyridin-2-yl)methyl)-1H-indazol-4-yl)imidazo[1,2-a]pyridine-3-carboxamide], the IC50 is 4580 nM in assay [1], at least 1000 nM in assay [2] and 73.5 nM in assay [3].

Consider `Cc1nn(Cc2ccc(F)c(C(C)C)n2)c2cccc(NC(=O)c3cnc4cc(OCCN5CCN(C)[C@@H](C)C5)ccn34)c12` [Example 41, (S)-7-(2-(3,4-dimethylpiperazin-1-yl)ethoxy)-N-(1-((5-fluoro-6-isopropylpyridin-2-yl)methyl)-3-methyl-1H-indazol-4-yl)imidazo[1,2-a]pyridine-3-carboxamide], for which the IC50 in assay [1] amounted to 87.2 nM; in assay [2], 19.6 nM; in assay [3], 97.1 nM.
